Key:
Endothelin-B Receptor [1] = target: T1, Endothelin-B Receptor (Homo sapiens, UniProt P24530); assay: Endothelin Assay Test, [125I]endothelin-1 binding to insect cell (Sf9) membrane fraction expressing human ETB receptor; conditions: human ETB receptor expressed, 25°C for 60 minutes, PMB = 50%, read-out: IC 50 Endothelin-B Receptor (human)
T1 construct: expressed in transfected cells; host or cells: Sf9 insect cells (membrane fraction)
T1 sequence (P24530 27-442): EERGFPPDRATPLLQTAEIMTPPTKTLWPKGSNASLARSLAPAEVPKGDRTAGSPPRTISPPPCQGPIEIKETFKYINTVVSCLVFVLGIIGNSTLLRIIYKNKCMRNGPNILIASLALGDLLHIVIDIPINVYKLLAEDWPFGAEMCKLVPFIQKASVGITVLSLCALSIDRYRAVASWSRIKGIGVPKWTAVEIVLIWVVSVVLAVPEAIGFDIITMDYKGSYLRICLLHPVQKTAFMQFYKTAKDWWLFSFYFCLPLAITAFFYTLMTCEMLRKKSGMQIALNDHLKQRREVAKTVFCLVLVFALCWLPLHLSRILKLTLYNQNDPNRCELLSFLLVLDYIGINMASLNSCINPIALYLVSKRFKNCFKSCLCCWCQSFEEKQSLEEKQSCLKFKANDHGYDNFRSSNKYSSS
Experimental: (§1) Endothelin (ET) receptors were prepared as follows. An insect cell (Sf9) membrane fraction wherein human endothelin-A (ETA) was expressed and that wherein endothelin-B (ETB) was expressed were diluted with an assay buffer [comprising 20 mM of Tris-HCl, 2 mM of EGTA (ethylene glycol bis(2-aminoethyl ether)tetraacetic acid), 5 mM of magnesium acetate, 0.1% of BSA (bovine serum albumin), 0.03% of NaN3, 0.5 mM of PMSF (phenylmethylsulfonyl fluoride), 20 micrograms/ml of leupeptin, 4 micrograms/ml of E-64 (manufactured by the Peptide Institute, Japan) and 1 microgram/ml of pepstatin; pH 7.2] to make 1.4 micrograms/ml and 0.7 microgram/ml for the insect cell (Sf 9) membrane fraction wherein a human ETA receptor was expressed and for that wherein a human ETB receptor was expressed, respectively. Each 100 microliters of them were taken out and 2 microliters of 5nM [^125I]endothelin-1 was added thereto. A dimethyl sulfoxide solution (3 microliters) of the sample was added thereto and the mixture was incubated at 25°C for 60 minutes. Further, in order to measure the maximum binding (B0) and the nonspecific binding (NSB), a lot to which […] or […] of 10^-5M of endothelin-1 in dimethyl sulfoxide was added was incubated as well. An assay buffer suspended with 0.05% CHAPS (3-[(3-cholamidopropyl)di-methylammonio]-1-propanesulfonate, 1.5 ml) was added and the mixture was filtered through a GF/F glass fiber filter (trade name of Whatman, England) followed by washing with 1.5 ml of the same buffer.
(§2) The radioactivity of the filter was counted by a γ -counter and determined PMB by the same way described in Test Example 1. The value wherein PMB = 50% was calculated and expressed as an IC50.

Endothelin-A Receptor [2] = target: T2, Endothelin-A Receptor (Homo sapiens, UniProt P25101); assay: Endothelin Assay Test, [125I]endothelin-1 binding to insect cell (Sf9) membrane fraction expressing human ETA receptor; conditions: human ETA receptor expressed, 25°C for 60 minutes, PMB = 50%, read-out: IC 50 Endothelin-A Receptor (human)
T2 construct: expressed in transfected cells; host or cells: Sf9 insect cells (membrane fraction)
T2 sequence (P25101 21-427): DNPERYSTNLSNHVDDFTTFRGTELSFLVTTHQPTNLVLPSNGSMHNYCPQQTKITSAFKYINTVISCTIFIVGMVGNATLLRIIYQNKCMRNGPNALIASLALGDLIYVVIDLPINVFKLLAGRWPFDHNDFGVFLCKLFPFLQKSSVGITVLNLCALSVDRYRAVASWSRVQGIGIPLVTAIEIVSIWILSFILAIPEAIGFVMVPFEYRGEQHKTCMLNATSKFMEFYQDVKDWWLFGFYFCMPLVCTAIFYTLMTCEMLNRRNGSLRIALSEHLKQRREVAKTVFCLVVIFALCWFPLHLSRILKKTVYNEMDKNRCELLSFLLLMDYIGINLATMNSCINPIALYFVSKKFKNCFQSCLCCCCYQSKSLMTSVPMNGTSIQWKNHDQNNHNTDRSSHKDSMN
Experimental: as §1, §2

Endothelin-B Receptor [3] = target: T3, Endothelin-B Receptor (Bos taurus, UniProt P28088); assay: Endothelin Receptor Assay, [125I]endothelin-1 binding to bovine cerebral membrane fraction; conditions: 25°C for 60 minutes, concentration wherein PMB was 50%
T3 construct: a bovine cerebral membrane fraction for an endothelin-B receptor assay; from tissue; host or cells: bovine cerebral membrane fraction
T3 sequence (P28088 27-441): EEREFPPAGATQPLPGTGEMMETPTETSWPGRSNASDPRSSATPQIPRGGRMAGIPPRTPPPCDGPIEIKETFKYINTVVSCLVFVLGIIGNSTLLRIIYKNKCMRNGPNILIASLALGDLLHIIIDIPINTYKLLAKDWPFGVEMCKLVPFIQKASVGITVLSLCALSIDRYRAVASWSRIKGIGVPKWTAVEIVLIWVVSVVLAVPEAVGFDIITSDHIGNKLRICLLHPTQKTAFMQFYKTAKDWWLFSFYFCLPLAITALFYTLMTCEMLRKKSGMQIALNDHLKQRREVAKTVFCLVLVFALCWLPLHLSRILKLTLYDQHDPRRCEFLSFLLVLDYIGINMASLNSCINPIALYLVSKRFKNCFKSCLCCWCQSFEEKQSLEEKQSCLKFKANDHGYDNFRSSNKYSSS
Experimental: (§3) A pig ventricular muscle membrane fraction for an endothelin-A receptor assay and a bovine cerebral membrane fraction for an endothelin-B receptor assay were diluted with an assay buffer [comprising 20 mM of Tris-HCl, 2 mM of EGTA (ethylene glycol bis(2-aminoethyl ether)tetraacetic acid), 5 mM of magnesium acetate, 0.1% of BSA (bovine serum albumin), 0.03% of NaN3, 0.5 mM of PMSF (phenylmethylsulfonyl fluoride), 20 micrograms/ml of leupeptin, 4 micrograms/ml of E-64 (manufactured by the Peptide Institute, Japan) and 1 microgram/ml of pepstatin; pH 7.2] to 12 µg/ml and 180 µg/ml, respectively.
(§4) To each 100 microliter of them was added 5 nM [^125I] endothelin-1 (2 microliters). A solution (3 microliters) of the sample was added and the mixture was incubated at 25°C for 60 minutes. In order to measure the maximum binding (B0) and the nonspecific bonding (NSB), a lot to which dimethyl sulfoxide (3 microliters) or a solution (3 microliters) of 10^-5M of endothelin in dimethyl sulfoxide was added was incubated as well. […] The radioactivity of the filter was counted by a γ -counter and a calculation was conducted in accordance with the following formula (1) whereby a percent maximum binding (hereinafter, referred to as PMB) was determined. […]

Endothelin-A Receptor [4] = target: T4, Endothelin-A Receptor (Sus scrofa, UniProt Q29010); assay: Endothelin Receptor Assay, [125I]endothelin-1 binding to pig ventricular muscle membrane fraction; conditions: 25°C for 60 minutes, concentration wherein PMB was 50%, read-out: IC50 Endothelin-A Receptor (pigs)
T4 construct: A pig ventricular muscle membrane fraction for an endothelin-A receptor assay; from tissue; host or cells: pig ventricular muscle membrane fraction
T4 sequence (Q29010 21-427): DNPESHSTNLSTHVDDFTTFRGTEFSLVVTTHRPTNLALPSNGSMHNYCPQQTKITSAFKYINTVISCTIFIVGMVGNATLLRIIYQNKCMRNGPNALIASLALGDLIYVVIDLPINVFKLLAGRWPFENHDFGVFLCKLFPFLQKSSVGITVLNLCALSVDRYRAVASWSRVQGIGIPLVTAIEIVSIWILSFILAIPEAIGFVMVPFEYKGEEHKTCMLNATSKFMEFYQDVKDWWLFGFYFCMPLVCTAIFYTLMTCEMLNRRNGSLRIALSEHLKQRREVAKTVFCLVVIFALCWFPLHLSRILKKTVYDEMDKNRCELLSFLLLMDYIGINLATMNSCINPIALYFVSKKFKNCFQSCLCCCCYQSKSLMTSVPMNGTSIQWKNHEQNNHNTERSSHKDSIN
Experimental: as §3, §4

SMILES	IC50 (Endothelin-B Receptor [1]) [nM]	IC50 (Endothelin-A Receptor [2]) [nM]	IC50 (Endothelin-B Receptor [3]) [nM]	IC50 (Endothelin-A Receptor [4]) [nM]
COc1ccc(-c2sc3c(c2C)c(=O)n(CC(=O)O)c(=O)n3Cc2ccccc2C)cc1 [Compound 111]	14000	1800		
CSc1ccccc1Cn1c(=O)n(CC(=O)O)c(=O)c2c(C)c(-c3ccc(OCC(C)=O)cc3)sc21 [Compound 148, 2,4(1H,3H)-dioxo-5-methyl-1-(2-methylthiobenzyl)-6-[4-(2-oxopropoxy)phenyl]thieno[2,3-d]pyrimidine-3-acetic acid]	7100	400		
CSc1ccccc1Cn1c(=O)n(CC(=O)O)c(=O)c2c(C)c(-c3ccc(-n4cccc4)cc3)sc21 [Compound 173, 2,4(1H,3H)-dioxo-1-(2-methylthiobenzyl)-6-[4-(1-pyrrolyl)phenyl]-5-methylthieno[2,3-d]pyrimidine-3-acetic acid]	2500	2100		
CSCOc1ccc(-c2sc3c(c2C)c(=O)n(CC(=O)O)c(=O)n3Cc2ccccc2SC)cc1 [Compound 145, 2,4(1H,3H)-dioxo-5-methyl-6-(4-methylthiomethoxyphenyl)-1-(2-methylthiobenzyl)thieno[2,3-d]pyrimidine-3-acetic acid]	660	66		
COc1ccc(-c2sc3c(c2C)c(=O)n(CC(=O)O)c(=O)n3Cc2ccccc2SC)cc1 [Compound 115, 2,4(1H,3H)-dioxo-5-methyl-6-(4-methoxyphenyl)-1-(2-methylthiobenzyl)thieno[2,3-d]pyrimidine-3-acetic acid]	6800	710		
COc1ccccc1Cn1c(=O)n(CC(=O)O)c(=O)c2c(C)c(-c3ccc(OCC(N)=O)cc3)sc21 [Compound 143]	33000	2500		
COc1ccc(-c2sc3c(c2C)c(=O)n(CC(=O)O)c(=O)n3Cc2cc(OC)ccc2OC)cc1 [Compound 125]	26000	2900		
COc1cccc(Cn2c(=O)n(CC(=O)O)c(=O)c3cc(-c4ccccc4)sc32)c1 [Compound 99]			39000	12000
COc1ccccc1Cn1c(=O)n(CC(=O)O)c(=O)c2c(C)c(-c3ccc(OCSC)cc3)sc21 [Compound 140, 2,4(1H,3H)-dioxo-5-methyl-6-(4-methylthiomethoxyphenyl)-1-(2-methoxybenzyl)thieno[2,3-d]pyrimidine-3-acetic acid]	15000	240		
COCOc1ccc(-c2sc3c(c2C)c(=O)n(CC(=O)O)c(=O)n3Cc2ccccc2SC)cc1 [Compound 144, 2,4(1H,3H)-dioxo-5-methyl-6-(4-methoxymethoxyphenyl)-1-(2-methylthiobenzyl)thieno[2,3-d]pyrimidine-3-acetic acid]	920	85		
COc1ccccc1Cn1c(=O)n(CC(=O)O)c(=O)c2c(C)c(-c3ccc(OCCO)cc3)sc21 [Compound 130]	12000	1200		
COCOc1ccc(-c2sc3c(c2C)c(=O)n(CC(=O)O)c(=O)n3Cc2ccccc2OC)cc1 [Compound 131, 2,4(1H,3H)-dioxo-5-methyl-6-(4-methoxymethoxyphenyl)-1-(2-methoxybenzyl)thieno[2,3-d]pyrimidine-3-acetic acid]	2400	300		
COc1ccccc1Cn1c(=O)n(CC(=O)O)c(=O)c2c(C)c(-c3ccccc3)sc21 [Compound 102]			7500	1300
CSc1ccccc1Cn1c(=O)n(CC(=O)O)c(=O)c2c(C)c(-c3ccc4c(c3)OCO4)sc21 [Compound 156]	16000	2600		
CCCOc1ccc(-c2sc3c(c2C)c(=O)n(CC(=O)O)c(=O)n3Cc2ccccc2SC)cc1 [Compound 146, 2,4(1H,3H)-dioxo-5-methyl-1-(2-methylthiobenzyl)-6-(4-propoxyphenyl)thieno[2,3-d]pyrimidine-3-acetic acid]	2600	250		
COc1ccc(-c2sc3c(c2C)c(=O)n(CC(=O)O)c(=O)n3Cc2ccccc2OC)cc1 [Compound 105]	12000	1900		

From patent EP0640606B1, “Thienopyrimidine derivatives, their production and use” (TAKEDA CHEMICAL INDUSTRIES, LTD., priority 1993, dated 1995)
